For data set [1], the system named is Puccinia recondita f. sp. tritici. The experiment in a line: Fungicidal activity against Puccinia recondita f. sp. tritici / wheat / leaf disc preventative (brown rust). The note with it: foliar, 200 ppm in the applied formulation, wheat leaf segments cv. Kanzler, preventative (inoculated 1 day after application), assessed 7 to 9 days after application, read-out: disease control compared to untreated control leaf disks. It counts as in vivo. An outline of the steps: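 Wheat cv. Kanzler leaf segments on agar sprayed with formulated compound diluted in water, inoculated with P. recondita spores 1 day later. Incubated at 19C, 75% rh, 12 h light/12 h dark; scored 7 to 9 days after application as percent disease control versus untreated segments. Test rate 200 ppm.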

Data set [2] has as its system Glomerella laqenarium (Colletotrichum lagenarium). The data set is described as follows: Fungicidal activity against Glomerella lagenarium (Colletotrichum lagenarium) liquid culture / cucumber / preventative (anthracnose). It counts as cell-based. The note with it: Colletotrichum orbiculare; 20 ppm in the applied formulation; liquid culture in PDB, 24° C., 3 to 4 days after application; read-out: disease control compared to untreated control (inhibition of growth measured photometrically). An outline of the steps:
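Cryostored conidia mixed into potato dextrose broth and added to test compound (from DMSO solution) in microtiter plates. Incubated at 24 °C; growth inhibition read photometrically 3 to 4 days after application, as percent activity versus untreated check.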

Data set [3] relates to Uromyces viciae-fabae. The experiment in a line: Fungicidal activity against Uromyces viciae-fabae / field bean / leaf disc preventative (faba-bean rust). It counts as in vivo. As to conditions: foliar, 288 h, 100 ppm in the applied formulation, field bean leaf discs, preventative (inoculated two hours after application), assessed 12 days after application, read-out: disease control compared to untreated control leaf discs. An outline of the steps:
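Field bean leaf discs on water agar treated with 10 μl compound in acetone plus spreader, then spray-inoculated on the lower surface with Uromyces viciae-fabae spores 2 h later. Incubation at 22 °C, 18 h day, 70% RH; percent disease control versus untreated scored 12 days after application, compounds at 100 ppm.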

In data set [4] the test system is Phakopsora pachyrhizi. The experiment in a line: Fungicidal activity against Phakopsora pachyrhizi / soybean / leaf disc preventative (Asian soybean rust). It counts as in vivo. The note with it: foliar, 200 ppm in the applied formulation, soybean leaf disks, preventative (inoculated one day after application), assessed 12 to 14 days after application, read-out: disease control compared to untreated control leaf disks. An outline of the steps:
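Soybean leaf discs on water agar sprayed with formulated compound diluted in water; spore suspension sprayed on lower leaf surface one day later. Incubated 24-36 h dark at 20° C, 75% rh, then 20° C, 12 h light/day, 75% rh. Percent disease control versus untreated scored 12 to 14 days after application.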

The subject of data set [5] is Puccinia recondita f. sp. tritici. The data set is described as follows: Fungicidal activity against Puccinia recondita f. sp. tritici / wheat / leaf disc curative (brown rust). It counts as in vivo. The note with it: foliar, 200 ppm in the applied formulation, wheat leaf segments cv. Kanzler, curative (applied 1 day after inoculation), assessed 6 to 8 days after application, read-out: disease control compared to untreated control leaf disks. An outline of the steps:
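Wheat cv. Kanzler leaf segments on agar, spore-inoculated, held dark at 19° C./75% RH; formulated compound in water sprayed 1 day post-inoculation (curative). Incubated 19° C., 75% RH, 12 h light/12 h dark; percent disease control vs untreated scored 6 to 8 days after application.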

Each structure is given as a SMILES string.

We go through 18 molecules from patent publication US10959432B2, “Microbiocidal oxadiazole derivatives” (Syngenta Participations AG, priority 2016, dated 2021).

Take `O=C(NCC1CC(F)(F)C1(F)F)c1ccc(-c2noc(C(F)(F)F)n2)cc1F` (centres unmarked) [Compound 2b.4, 2-fluoro-N-[(2,2,3,3-tetrafluorocyclobuty)methyl]-4-[5-(trifluoromethyl)-1,2,4-oxadiazol-3-yl]benzamide]: the pest or weed control at 200 ppm in data set [1], in data set [4] and in data set [5] was ≥ 80% in each case. Further, in data set [2], the inhibition at 20 ppm was ≥ 80%. In data set [3], the pest or weed control at 100 ppm was ≥ 80%.

In the case of `CC(NC(=O)c1ccc(-c2noc(C(F)(F)F)n2)cc1F)C1CC1` (centres unmarked) [Compound 2b.5, N-(1-cyclopropylethyl)-2-fluoro-4-[5-(trifluoromethyl)-1,2,4-oxadiazol-3-yl]benzamide], the pest or weed control at 200 ppm in data set [1], in data set [4] and in data set [5] was ≥ 80% in each case. For the same molecule, the inhibition at 20 ppm in data set [2] is ≥ 80%. Further, in data set [3], the pest or weed control at 100 ppm was ≥ 80%.

Take `CN(CC(=O)NC(C)(C)C)C(=O)c1ccc(-c2noc(C(F)(F)F)n2)cc1` [Compound 3a.3, N-[2-(tert-butylamino)-2-oxo-ethyl]-N-methyl-4-[5-(trifluoromethyl)-1,2,4-oxadiazol-3-yl]benzamide]: the pest or weed control at 200 ppm in data set [1], in data set [4] and in data set [5] was ≥ 80% each time. Moreover, the inhibition at 20 ppm in data set [2] was ≥ 80%. For the same molecule, the pest or weed control at 100 ppm in data set [3] is ≥ 80%.

With `CC(COC(F)F)NC(=O)c1ccc(-c2noc(C(F)(F)F)n2)cc1` (centres unmarked) [Compound 3a.43, N-[2-(difluoromethoxy)-1-methyl-ethyl]-4-[5-(trifluoromethyl)-1,2,4-oxadiazol-3-yl]benzamide], the melting point was in the range of 128 to 130 °C. Also, in data set [1], the pest or weed control at 200 ppm was ≥ 80%. Further, the inhibition at 20 ppm in data set [2] was ≥ 80%. Besides, the pest or weed control at 200 ppm in data set [4] is ≥ 80%. Further, in data set [5], the pest or weed control at 200 ppm is ≥ 80%.

Molecule `O=C(NCCOC(F)F)c1ccc(-c2noc(C(F)(F)F)n2)cc1` [Compound 3a.45, N-[2-(difluoromethoxy)ethyl]-4-[5-(trifluoromethyl)-1,2,4-oxadiazol-3-yl]benzamide] gave a melting point of 117 to 120 °C. Further, the pest or weed control at 200 ppm in data set [1] is ≥ 80%. Further, the inhibition at 20 ppm in data set [2] was ≥ 80%. For the same molecule, in data set [4], the pest or weed control at 200 ppm was ≥ 80%. Also, the pest or weed control at 200 ppm in data set [5] was ≥ 80%.

Consider `COc1ccc(CNC(=O)c2ccc(-c3noc(C(F)(F)F)n3)cc2)c(OC)c1` [Compound 4a.13, N-[(2,4-dimethoxyphenyl)methyl]-4-[5-(trifluoromethyl)-1,2,4-oxadiazol-3-yl]benzamide], for which the pest or weed control at 200 ppm in data set [1], in data set [4] and in data set [5] was ≥ 80% throughout. The inhibition at 20 ppm in data set [2] was ≥ 80%. In data set [3], the pest or weed control at 100 ppm was ≥ 80%.

For `CN(Cc1ccccc1F)C(=O)c1ccc(-c2noc(C(F)(F)F)n2)cc1F` [Compound 4b.9, 2-fluoro-N-[(2-fluorophenyl)methyl]-N-methyl-4-[5-(trifluoromethyl)-1,2,4-oxadiazol-3-yl]benzamide], the pest or weed control at 200 ppm in data set [1], in data set [4] and in data set [5] was ≥ 80% each time. Further, the inhibition at 20 ppm in data set [2] was ≥ 80%. Besides, in data set [3], the pest or weed control at 100 ppm was ≥ 80%.

Regarding `CN(Cc1ccc(Cl)nc1)C(=O)c1ccc(-c2noc(C(F)(F)F)n2)cc1` [Compound 5a.9, N-[(6-chloro-3-pyridyl)methyl]-N-methyl-4-[5-(trifluoromethyl)-1,2,4-oxadiazol-3-yl]benzamide], the pest or weed control at 200 ppm in data set [1], in data set [4] and in data set [5] was ≥ 80% in each case. In data set [2], the inhibition at 20 ppm was ≥ 80%. Besides, the pest or weed control at 100 ppm in data set [3] is ≥ 80%.

On to `O=C(NCc1nccs1)c1ccc(-c2noc(C(F)(F)F)n2)cc1` [Compound 5a.10, N-(thiazol-2-ylmethyl)-4-[5-(trifluoromethyl)-1,2,4-oxadiazol-3-yl]benzamide], for which the pest or weed control at 200 ppm in data set [1], in data set [4] and in data set [5] was ≥ 80% in each case. Besides, the inhibition at 20 ppm in data set [2] is ≥ 80%. For the same molecule, in data set [3], the pest or weed control at 100 ppm was ≥ 80%.

`CN(Cc1cccs1)C(=O)c1ccc(-c2noc(C(F)(F)F)n2)cc1F` [Compound 5b.2, 2-fluoro-N-methyl-N-(2-thienylmethyl)-4-[5-(trifluoromethyl)-1,2,4-oxadiazol-3-yl]benzamide]: the pest or weed control at 200 ppm in data set [1], in data set [4] and in data set [5] was ≥ 80% each time. Also, the inhibition at 20 ppm in data set [2] was ≥ 80%. The pest or weed control at 100 ppm in data set [3] is ≥ 80%.

`O=C(NCc1ncc(C(F)(F)F)cc1Cl)c1ccc(-c2noc(C(F)(F)F)n2)cc1F` [Compound 5b.4, N-[[3-chloro-5-(trifluoromethyl)-2-pyridyl]methyl]-2-fluoro-4-[5-(trifluoromethyl)-1,2,4-oxadiazol-3-yl]benzamide] came in with a melting point of 126.6 to 128.3 °C. In addition, in data set [3], the pest or weed control at 100 ppm is ≥ 80%. Besides, the pest or weed control at 200 ppm in data set [4] is ≥ 80%.

`O=C(NCCc1ncc(C(F)(F)F)cc1Cl)c1ccc(-c2noc(C(F)(F)F)n2)cc1F` [Compound 5b.5, N-[2-[3-chloro-5-(trifluoromethyl)-2-pyridyl]ethyl]-2-fluoro-4-[5-(trifluoromethyl)-1,2,4-oxadiazol-3-yl]benzamide] yielded a melting point of 144.9 to 146.5 °C. Besides, in data set [3], the pest or weed control at 100 ppm was ≥ 80%. The pest or weed control at 200 ppm in data set [4] is ≥ 80%.

As for `Cc1ccc(CNC(=O)c2ccc(-c3noc(C(F)(F)F)n3)cc2F)o1` [Compound 5b.9, 2-fluoro-N-[(5-methyl-2-furyl)methyl]-4-[5-(trifluoromethyl)-1,2,4-oxadiazol-3-yl]benzamide], the pest or weed control at 200 ppm in data set [1], in data set [4] and in data set [5] was ≥ 80% throughout. Besides, the inhibition at 20 ppm in data set [2] was ≥ 80%. Besides, the pest or weed control at 100 ppm in data set [3] was ≥ 80%.

Turning to `O=C(NCc1ccco1)c1ccc(-c2noc(C(F)(F)F)n2)cc1F` [Compound 5b.11, 2-fluoro-N-(2-furylmethyl)-4-[5-(trifluoromethyl)-1,2,4-oxadiazol-3-yl]benzamide], the pest or weed control at 200 ppm in data set [1], in data set [4] and in data set [5] was ≥ 80% each time. In addition, the inhibition at 20 ppm in data set [2] was ≥ 80%. Besides, in data set [3], the pest or weed control at 100 ppm is ≥ 80%.

In the case of `O=C(NCCc1cccs1)c1ccc(-c2noc(C(F)(F)F)n2)cc1F` [Compound 5b.13, 2-fluoro-N-[2-(2-thienyl)ethyl]-4-[5-(trifluoromethyl)-1,2,4-oxadiazol-3-yl]benzamide], the pest or weed control at 200 ppm in data set [1], in data set [4] and in data set [5] was ≥ 80% each time. Also, the inhibition at 20 ppm in data set [2] is ≥ 80%. Further, in data set [3], the pest or weed control at 100 ppm is ≥ 80%.

`Cc1ccc(CNC(=O)c2ccc(-c3noc(C(F)(F)F)n3)cc2Cl)o1` [Compound 5b.16, 2-chloro-N-[(5-methyl-2-furyl)methyl]-4-[5-(trifluoromethyl)-1,2,4-oxadiazol-3-yl]benzamide]: the pest or weed control at 200 ppm in data set [1], in data set [4] and in data set [5] was ≥ 80% in each case. Moreover, the inhibition at 20 ppm in data set [2] was ≥ 80%. In addition, the pest or weed control at 100 ppm in data set [3] is ≥ 80%.

In the case of `O=C(NCc1ccco1)c1ccc(-c2noc(C(F)(F)F)n2)cc1Cl` [Compound 5b.17, 2-chloro-N-(2-furylmethyl)-4-[5-(trifluoromethyl)-1,2,4-oxadiazol-3-yl]benzamide], the pest or weed control at 200 ppm in data set [1], in data set [4] and in data set [5] was ≥ 80% in each case. Further, the inhibition at 20 ppm in data set [2] is ≥ 80%. Moreover, the pest or weed control at 100 ppm in data set [3] was ≥ 80%.

Take `O=C(NCc1nccs1)c1ccc(-c2noc(C(F)(F)F)n2)cc1F` [Compound 5b.19, 2-fluoro-N-(thiazol-2-ylmethyl)-4-[5-(trifluoromethyl)-1,2,4-oxadiazol-3-yl]benzamide]: the pest or weed control at 200 ppm in data set [1], in data set [4] and in data set [5] was ≥ 80% in each case. In data set [2], the inhibition at 20 ppm was ≥ 80%. Also, in data set [3], the pest or weed control at 100 ppm was ≥ 80%.

For orientation: inhibition means the percentage by which the read-out fell short of the control. As usually defined, the melting point is the temperature of the solid-liquid transition.
